Test results: US9375456B2, “Antiviral composition containing an Aleurites fordii or Daphne kiusiana extract or a fraction thereof as an active ingredient” (priority 2009, dated 2016)

Tested on: NK92 cells
Assay: Dependence of Aleurites fordii extract-induced IFN-γ production on NF-κB/PKC signaling
Assay type: cell-based, human
Details: NK92 cells treated with inhibitor along with Aleurites fordii extract, FIG. 9

SMILES: CC(=O)c1c(O)c(C)c(O)c(Cc2c(O)c3c(c(C(=O)/C=C/c4ccccc4)c2O)OC(C)(C)C=C3)c1O [rotterin]
- induction of IFN-γ production by the Aleurites fordii extract: reduced
